Test results taken from patent US5321030A, “Creatine analogs having antiviral activity” (priority 1991, dated 1994).
In brackets after ≈: the same amount, converted by molar mass. Like-named read-outs stand apart in the source and are kept apart here.

Legend:
[1] = system: herpes simplex virus type 2 (HSV-2), strain E194; experiment: HSV-2 vaginitis in mice; assay type: in vivo, Swiss Webster female mice
[2] = system: Adenovirus type 5; experiment: CPE assay, adenovirus in DU 145 cells; assay type: cell-based; conditions: 0.3125-10 mg/ml, FIG. 15A
Experimental: Adenovirus type 5 was obtained from the ATCC. DU 145 cells were obtained from the American Type Culture Collection. Cells were infected with virus and cyclocreatine was assayed for antiviral activity using the cytopathic effect (CPE) assay essentially as described in Example 1.

[3] = system: Vesicular stomatitis virus (VSV), Indiana strain; assay type: cell-based; conditions: 62.5 μg/ml-4 mg/ml; Vero cells and BHK-21 cells; scale 0-4; no drug controls 4.0
[4] = newly hatched chicks, 1% in diet, with antibiotics; cited from earlier work
[5] = system: Influenza A/Port Chalmers/1/73 (H3 N2); experiment: CPE-reduction assay, Influenza A in MDCK cells; assay type: cell-based; conditions: 62.5 μg/ml-4 mg/ml
[6] = in vitro; conditions: guinea pig, gpe cells
[7] = system: MRC-5 cells; experiment: Cytotoxicity in plaque reduction assay, MRC-5 cells; assay type: cell-based, human; conditions: HCMV experiments, 8 days of exposure
Experimental: (§1) Cytotoxicity was determined by examination of cells (located away from plaques) in infected wells which had been treated with drug.

[8] = as above; assay type: cell-based, human; conditions: human, mrc-5 cells, read-out: CD50 (the source's name)
Experimental: as §1

[9] = system: Varicella-Zoster Virus, strain Oka; experiment: microbe, parasite or virus in culture; assay type: cell-based; design: TI50 (CD50 ÷ ED50): unit not given beside the values
[10] = Human alphaherpesvirus 3, CV-1, read-out: % Reduction
[11] = Human alphaherpesvirus 3, MRC5, read-out: % Reduction

NC1=NCCN1CC(=O)O [cyclocreatine, 1-carboxymethyl-2-iminoimidazolidine]
average lesion score ([1]; 10% cream topical, day 5): 0.9 ± 1.2
average lesion score ([1]; 10% cream topical, day 6): 1.4 ± 1.9
average lesion score ([1]; 10% cream topical, day 7): 1.6 ± 1.9
average lesion score ([1]; 10% cream topical, day 8): 2.0 ± 2.0
average lesion score ([1]; 10% cream topical, day 9): 2.2 ± 1.9
average lesion score ([1]; 10% cream topical, day 10): 2.2 ± 1.9
average lesion score ([1]; 10% cream topical, day 11): 2.1 ± 1.9
average lesion score ([1]; 10% cream topical, day 12): 2.0 ± 1.9
average lesion score ([1]; 10% cream topical, day 13): 2.0 ± 1.9
average lesion score ([1]; 10% cream topical, day 14): 2.0 ± 1.9
average lesion score ([1]; […] cream topical, Grand Ave. (Days 3-14)): 2.0 ± 0.9
average lesion score ([1]; […] cream topical, day 3): 0.2 ± 0.2
average lesion score ([1]; […] cream topical, day 4): 0.4 ± 0.6
average lesion score ([1]; […] cream topical, day 5): 1.2 ± 1.3
average lesion score ([1]; […] cream topical, day 6): 1.8 ± 1.8
average lesion score ([1]; […] cream topical, day 7): 2.2 ± 1.8
average lesion score ([1]; […] cream topical, day 8): 2.7 ± 1.7
average lesion score ([1]; […] cream topical, day 9): 2.4 ± 1.9
average lesion score ([1]; […] cream topical, day 10): 2.6 ± 1.7
average lesion score ([1]; […] cream topical, day 11): 2.6 ± 1.7
average lesion score ([1]; […] cream topical, day 12): 2.6 ± 1.7
average lesion score ([1]; […] cream topical, day 13): 2.6 ± 1.7
average lesion score ([1]; […] cream topical, day 14): 2.6 ± 1.7
activity in vaginitis model, second experiment ([1]; cream topical): weak, but not statistically significant, activity
Mean Day to Death ([1]; virus infected, AM-285 1% dietary): 6.0 ± 0.0
effect on cytopathic effect [2]: inhibited the cytopathic effect
CPE grade [3]: 4.0
tolerance of dietary cyclocreatine [4]: without significant mortality
antiviral activity [5]: did not display significant antiviral activity
CC50 [6]: > 10000 µg/mL
visible cytotoxicity [7]: no visible signs of cytotoxicity
CC50 ([8]; Table 4): > 4000 µg/mL
CC50 ([8]; Table 6): > 10000 µg/mL
CC50 ([8]; Table 7): > 10000 µg/mL
CC50 ([8]; Table 9A): > 4000 µg/mL
TI50 (CD50 ÷ ED50) ([9]; CV-1 cells, Table 9B): ~ 54
# Plaques ([9]; CV-1 cells, AM-285 156 μg/ml, virus control 70.25 ± 6.9): 28.5
# Plaques ([9]; CV-1 cells, AM-285 312.5 μg/ml, virus control 70.25 ± 6.9): 12
# Plaques ([9]; CV-1 cells, AM-285 625 μg/ml, virus control 70.25 ± 6.9): 3
# Plaques ([9]; CV-1 cells, AM-285 1250 μg/ml, virus control 70.25 ± 6.9): 1
# Plaques ([9]; CV-1 cells, AM-285 2500 μg/ml, virus control 70.25 ± 6.9): 0
# Plaques ([9]; CV-1 cells, AM-285 5000 μg/ml, virus control 70.25 ± 6.9): 0
# Plaques ([9]; CV-1 cells, AM-285 10000 μg/ml, virus control 70.25 ± 6.9): 0
inhibition at 156 µg/mL [9, 10]: 59%
inhibition at 312.5 µg/mL [9, 10]: 83%
inhibition at 625 µg/mL [9, 10]: 96%
inhibition at 1250 µg/mL [9, 10]: 98%
inhibition at 2500 µg/mL [9, 10]: 100%
inhibition at 5000 µg/mL [9, 10]: 100%
inhibition at 10000 µg/mL [9, 10]: 100%
EC50 ([9]; Human alphaherpesvirus 3, CV-1, read-out: ED50): < 156 µg/mL
EC50 ([9]; Human alphaherpesvirus 3, CV-1, read-out: ED50, approximate value in parentheses): ~107 µg/mL (≈ 0.747 mM)
inhibition at 62.5 µg/mL [9, 11]: 0%
inhibition at 125 µg/mL [9, 11]: 0%
inhibition at 260 µg/mL [9, 11]: 36%
inhibition at 500 µg/mL [9, 11]: 42%
inhibition at 1000 µg/mL [9, 11]: 71%
inhibition at 2000 µg/mL [9, 11]: 91%
inhibition at 4000 µg/mL [9, 11]: 100%
EC50 ([9]; Human alphaherpesvirus 3, MRC5, read-out: ED50): 564 µg/mL (≈ 3.94 mM)
TI50 (CD50 ÷ ED50) ([9]; MRC-5 cells, Table 9A): > 7.1
# Plaques ([9]; MRC-5 cells, AM-285 62.5 μg/ml, virus control 32.7 ± 9.3): 26
# Plaques ([9]; MRC-5 cells, AM-285 125 μg/ml, virus control 32.7 ± 9.3): 26
# Plaques ([9]; MRC-5 cells, AM-285 260 μg/ml, virus control 32.7 ± 9.3): 21
# Plaques ([9]; MRC-5 cells, AM-285 500 μg/ml, virus control 32.7 ± 9.3): 19
# Plaques ([9]; MRC-5 cells, AM-285 1000 μg/ml, virus control 32.7 ± 9.3): 9.5
# Plaques ([9]; MRC-5 cells, AM-285 2000 μg/ml, virus control 32.7 ± 9.3): 3
# Plaques ([9]; MRC-5 cells, AM-285 4000 μg/ml, virus control 32.7 ± 9.3): 0
